# Reference: PMC9416257, “Design, Synthesis and Preliminary Evaluation of the Cytotoxicity and Antibacterial Activity of Novel Triphenylphosphonium Derivatives of Betulin” (Molecules, 2022)
# Where two headings read alike, the source gives them in different places.
# What was measured:
# [1] = tested on: Escherichia coli ATCC 25922; assay: Antibacterial assay, optical density of culture in TSB; assay type: cell-based; details: 37 °C, 18 h; note: key: 0: no difference between samples after 18 h of bacteria culture (bacteria grow was inhibited); neg: negative results (analog BN did not inhibit bacteria growing)
# Experimental: (§1) Investigations were carried out using different concentrations of solutions from 25 to 250 µM. A 25 µM concentration of the tested derivatives was not enough to inhibit the growth of […]. When the concentration of analogs 7d–7f and 9a–9c increased to 200 µM, the growth of S. aureus ATCC 25923 and S. epidermidis ATCC 12228 was inhibited. Furthermore, the optical density of all compounds remained unchanged after 18 h of bacteria culture. In the case of analogs 7a–7c, the optical density values were between 0.9 and 2.2 when they were cultured with S. aureus ATCC 25923. The bacterial growth was slower compared to the control sample (TSB-culture medium). […] In the case of analog 7c, the optical density increased up to […] after 18 h of the sample culture with both kinds of Gram-positive bacteria. In contrast, the reference sample’s (TSB) optical density increased to 7.5 for S. aureus ATCC 25923, and 4.9 for S. epidermidis ATCC 12228 after 18 h of bacteria culture. […] All of the analog values of the measured optical density were similar to that of the reference sample (5.0–5.1, Table 3).
# (§2) Antibacterial analysis was performed using the S. aureus ATCC 25923, S. epidermidis ATCC 12228, and Escherichia coli ATCC 25922 bacteria strains. The test compounds were dissolved in DMSO to obtain a stock solution with a concentration of 5 mM (betulin) or 10 mM (other test compounds). The stock solution was diluted with water to the desired concentration (25–250 µM). Then, 1 mL of the investigated solutions was mixed with 1 mL of culture medium (TSB, Biomaxima, Lublin, Poland) in a sterile glass tube. The initial concentration of bacteria was around 5 × 10^6 CFU/mL. The concentration of bacteria was measured using an optical densitometer before and after 18 h of bacteria culture in glass tubes at 37 °C (incubator POL-EKO, Wodzislaw Slaski, Poland). The investigations were repeated for three independent samples. The control sample was the culture medium without any supplementation.
# [2] = tested on: NHDF (Normal Human Dermal Fibroblast cells); assay: Cytotoxicity, CCK-8 cell viability assay (safety on normal cells); assay type: cell-based; details: read-out: Activity IC50, NHDF
# Experimental: (§3) The obtained new molecular hybrids of BN were screened in order to initially investigate their cytotoxicity as well as examine the relationships between the structure and biological effect. The common element of all of the tested compounds was the presence of a lipophilic moiety (CH2)nTPP^⊕ (n = 3, 4, 5). The research was conducted on two groups of compounds: 28-TPP^⊕ BN and 3,28-bisTPP^⊕ BN. Their cytotoxicity was investigated on two cancer cell lines: HCT 116 (colorectal carcinoma cell line) and MCF-7 (human breast adenocarcinoma cell line). The proliferation of tumor cells treated with the tested compounds (7 and 9) at 12.5–3.125 µM concentrations were determined after 24 h of incubation. Additionally, all compounds were tested against the NHDF cell line (Normal Human Dermal Fibroblast cells) to assess their safety. Half-maximal inhibitory concentrations (IC50) of triphenylphosphonium analogs of BN were determined using a CCK-8 assay and are summarized in Table 2.
# (§4) The human colorectal carcinoma cell line (HCT 116) and the human breast adenocarcinoma cell line (MCF-7) cells were purchased from the American Type Culture Collection (ATCC, Manassas, VA, USA). The Normal Human Dermal Fibroblast (NHDF) cells were purchased from Lonza (Dermal Fibroblasts, Lonza, Poland). All cells were cultured under standard conditions at 37 °C in a humidified atmosphere at 5% CO2 in DMEM/F12 medium (PAA) supplemented with 10% of heat-inactivated fetal bovine serum (FBS, EURx, Gdansk, Poland) and antibiotics (penicillin/streptomycin).
# (§5) Cells were seeded at 7500 (HCT 116) or 10,000 (MCF-7, NHDF) cells/well in 96-well plates. After 24 h, the culture medium was removed and 100 µL of fresh medium containing the test compounds at 0–12.5 µM concentrations was added to the culture wells. The test compounds were dissolved in DMSO to obtain a stock solution with a concentration of 5 mM (betulin) or 10 mM (other test compounds). The stock solution was diluted with the fresh culture medium to the desired concentration. Controls were cells grown in medium without the addition of test compounds. After 24 h of incubation with the test compounds, 10 µL of CCK-8 reagent (Bimake, Houston, TX, USA) was added to each well. After 2 h, the absorbance of the samples was measured at a wavelength of 450 nm using a microplate reader (Epoch, BioTek Instruments, Winooski, VT, USA). The determinations were conducted in at least three biological replications (each biological replication contained 3 technical replications). The cell viability rate was calculated using CalcuSyn software (version 2.0, Biosoft, Cambridge, UK).
# [3] = tested on: HCT 116 (colorectal carcinoma cell line); assay: Cytotoxicity, CCK-8 cell viability assay; assay type: cell-based; details: Homo sapiens, read-out: Activity IC50, HCT 116
# Experimental: as §3, §4, §5
# S. aureus ATCC 25923 = assay: Antibacterial assay, optical density of culture in TSB; assay type: cell-based, Staphylococcus aureus; details: 18 h; for Difference between optical density before and after culture, S. aureus ATCC 25923: 37 °C
# Experimental: as §1, §2
# [4] = tested on: MCF-7 (human breast adenocarcinoma cell line); assay: Cytotoxicity, CCK-8 cell viability assay; assay type: cell-based; details: read-out: Activity IC50, MCF-7
# Experimental: as §3, §4
# as §5, with “After 24 h, the culture medium was removed and 100 µL of fresh medium containing the test compounds at 0–12.5 µM concentrations was added to the culture wells.” left out
# [5] = tested on: S. epidermidis ATCC 12228; assay: Antibacterial assay, optical density of culture in TSB; assay type: cell-based, Staphylococcus epidermidis; details: 18 h; for Difference between optical density before and after culture, S. epidermidis ATCC 12228: 37 °C
# Experimental: as §1, §2
# [6] = CCK-8 assay, incubation time 24 h, mean ± SD (n = 3)
# [7] = HCT-116, CCK-8 assay, incubation time 24 h, mean ± SD (n = 3)
# [8] = MCF7, CCK-8 assay, incubation time 24 h, mean ± SD (n = 3)
SMILES,"Difference between optical density before and after culture, Escherichia coli ATCC 25922 ([1]; 200 μM)","Difference between optical density before and after culture, Escherichia coli ATCC 25922 ([1]; 250 μM)","IC50 [2, 6] [µM]","IC50 [3, 7] [µM]","Difference between optical density before and after culture, S. aureus ATCC 25923 (S. aureus ATCC 25923; 200 μM)","Difference between optical density before and after culture, S. aureus ATCC 25923 (S. aureus ATCC 25923; 250 μM)",Inhibition of growth of S. aureus ATCC 25923 (in words) (S. aureus ATCC 25923; 250 µM),"IC50 [4, 8] [µM]","Difference between optical density before and after culture, S. epidermidis ATCC 12228 ([5]; 200 μM)","Difference between optical density before and after culture, S. epidermidis ATCC 12228 ([5]; 250 μM)",Inhibition of growth of S. epidermidis ATCC 12228 (in words) ([5]; 250 µM),IC50 ([2]; 24 h) [µM],"IC50 ([3]; HCT-116, 24 h) [µM]","IC50 ([4]; MCF7, 24 h) [µM]"
"C=C(C)[C@@H]1CC[C@]2(COC(=O)CCC(=O)OCCC[P+](c3ccccc3)(c3ccccc3)c3ccccc3)CC[C@]3(C)C(CCC4[C@@]5(C)CC[C@H](OC(C)=O)C(C)(C)C5CC[C@]43C)C12 (stereo partly drawn) [7a, 3-O-Acetyl-28-O’-(3’-(3""-triphenylphosphoniopropyloxycarbonyl)propanoyl)betulin bromide]",neg,neg,9.68 ± 0.27,5.56 ± 0.28,0.9 McFarland’s scale (CFU/mL),0,greatly inhibited the growth,13.7 ± 0.54,neg,0,greatly inhibited the growth,–,–,–
"C=C(C)[C@@H]1CC[C@]2(COC(=O)CCC(=O)OCCCC[P+](c3ccccc3)(c3ccccc3)c3ccccc3)CC[C@]3(C)C(CCC4[C@@]5(C)CC[C@H](OC(=O)CCC(=O)OCCCC[P+](c6ccccc6)(c6ccccc6)c6ccccc6)C(C)(C)C5CC[C@]43C)C12 (stereo partly drawn) [9b, 3,28-O,O’-Bis(3’-(4""-triphenylphosphoniobutyloxycarbonyl)propanoyl)betulin bromide]",neg,neg,–,–,0,0,–,–,0,0,–,8.02 ± 0.35,7.97 ± 0.51,23.6 ± 0.33
"C=C(C)[C@@H]1CC[C@]2(COC(=O)CC(C)(C)C(=O)OCCCCC[P+](c3ccccc3)(c3ccccc3)c3ccccc3)CC[C@]3(C)C(CCC4[C@@]5(C)CC[C@H](OC(C)=O)C(C)(C)C5CC[C@]43C)C12 (stereo partly drawn) [7f, 3-O-Acetyl-28-O’-(3’,3’-dimethyl-3’-(5""-triphenylphosphoniopentyloxycarbonyl)propanoyl)betulin bromide]",neg,neg,10 ± 0.48,12.7 ± 0.89,0,0,–,50.5 ± 3.92,0,0,–,–,–,–
"C=C(C)[C@@H]1CC[C@]2(CO)CC[C@]3(C)[C@H](CC[C@@H]4[C@@]5(C)CC[C@H](O)C(C)(C)[C@@H]5CC[C@]43C)[C@@H]12 [BN, 3-lup-20(29)-ene-3,28-diol, reference compound]",neg,neg,> 12.5,> 12.5,5.1 McFarland’s scale (CFU/mL),5.6 McFarland’s scale (CFU/mL),–,> 12.5,neg,4.7 McFarland’s scale (CFU/mL),–,–,–,–
"C=C(C)[C@@H]1CC[C@]2(COC(=O)CC(C)(C)C(=O)OCCC[P+](c3ccccc3)(c3ccccc3)c3ccccc3)CC[C@]3(C)C(CCC4[C@@]5(C)CC[C@H](OC(C)=O)C(C)(C)C5CC[C@]43C)C12 (stereo partly drawn) [7d, 3-O-Acetyl-28-O’-(3’,3’-dimethyl-3’-(3""-triphenylphosphoniopropyloxycarbonyl)propanoyl)betulin bromide]",neg,neg,–,–,0,0,–,–,0,0,–,–,–,–
"C=C(C)[C@@H]1CC[C@]2(COC(=O)CCC(=O)OCCCCC[P+](c3ccccc3)(c3ccccc3)c3ccccc3)CC[C@]3(C)C(CCC4[C@@]5(C)CC[C@H](OC(C)=O)C(C)(C)C5CC[C@]43C)C12 (stereo partly drawn) [7c, 3-O-Acetyl-28-O’-(3’-(5""-triphenylphosphoniopentyloxycarbonyl)propanoyl)betulin bromide]",neg,neg,11.3 ± 0.53,6.48 ± 0.04,1.0 McFarland’s scale (CFU/mL),–,–,15.5 ± 0.92,neg,–,–,–,–,–
"C=C(C)[C@@H]1CC[C@]2(COC(=O)CC(C)(C)C(=O)OCCCC[P+](c3ccccc3)(c3ccccc3)c3ccccc3)CC[C@]3(C)C(CCC4[C@@]5(C)CC[C@H](OC(C)=O)C(C)(C)C5CC[C@]43C)C12 (stereo partly drawn) [7e, 3-O-Acetyl-28-O’-(3’,3’-dimethyl-3’-(4""-triphenylphosphoniobutyloxycarbonyl)propanoyl)betulin bromide]",neg,neg,–,–,0,0,–,–,0,0,–,–,–,–
